Experimental data taken from EP0702683B1, “06-SUBSTITUTED GUANINE DERIVATIVES, A PROCESS FOR THEIR PREPARATION AND THEIR USE IN TREATING TUMOUR CELLS” (Cancer Research Technology Limited, priority 1993, dated 1994).
Entries after “also recorded” stand apart in the source; their conditions may differ. Where two headings read alike, the source gives them in different places.

How the values were obtained:
[1] = molecular target: T1, ATase (Cricetulus griseus, UniProt P26186); experiment: Inactivation of ATase activity in Hamster +120 cells; format: cell-based, Chinese hamster; conditions: 2 hours at 37°C, read-out: Inactivation of ATase in Mammalian Cells I50(µM) Hamster + 120
T1 construct: endogenous in cells; host or cells: Hamster +120 (V79 RJKO subline)
T1 sequence (P26186 1-209): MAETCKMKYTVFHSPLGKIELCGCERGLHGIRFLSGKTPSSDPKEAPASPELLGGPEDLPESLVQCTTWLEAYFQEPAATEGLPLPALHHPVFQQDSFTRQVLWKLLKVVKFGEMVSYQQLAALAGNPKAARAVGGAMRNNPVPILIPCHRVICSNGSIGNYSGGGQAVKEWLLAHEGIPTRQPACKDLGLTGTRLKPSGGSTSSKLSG
Protocol: Mammalian cells were cultured under standard conditions. For example, Raji (a human lymphoblastoid cell line from a Burkitt's lymphoma) cells were grown in suspension culture in RPMI medium supplemented with 10% horse serum. […]
Cells were diluted to 10^6/ml in culture medium containing either the appropriate concentration of inactivator or an equivalent volume of vehicle (DMSO). […] ATase activity was determined as described above, in duplicate sonicated cell extracts and expressed as the percentage activity remaining based on that present in the untreated controls (for example 350-450 fm/mg in Raji cells).

[2] = Toxicity of inactivator in combination with BCNU in xenograft-bearing mice (survival); format: in vivo, nude mice; conditions: Figs. 9-13, in words
Protocol: 0X6 OPT, England (OLAC mice). […] For this reason lower doses were administered.
Xenograft tumour measurements were taken every 1-2 days by workers using digital calipers. Tumour volume was calculated using the formula (h x w x 1) π/6. The experimental animals were also weighed every 1-2 days. Measurements continued until tumours in the control animals reached the maximum allowable volume (i.e. 1cm x 1cm x 1cm).

[3] = system: Raji cells; experiment: Sensitization of Raji cells to temozolomide (XTT assay); format: cell-based, human
Protocol: Following a 2 hour incubation at 37°C, medium containing either increasing doses of BCNU, temozolomide or equivalent vehicle was added and the cells allowed to grow for 6 days. At this time XTT solution was added and the cells incubated for a further 4 hours at 37°C. The resulting red/orange formazan reaction product was quantified by measuring absorption at 450nm on a microtitre platereader.

[4] = system: bone marrow cells; experiment: Inactivator toxicity in bone marrow cells (GM-CFC colonies, inactivator alone); format: cell-based, human; conditions: 10uM, 5 patients A - E, Table 7, in words
Text: (§1) For the granulocyte/macrophage colony-forming cell (GM-CFC) assay primary human bone marrow samples were obtained from patients undergoing cardiothoracic surgery. […] The colonies represented precursor cells of the granulocyte/macrophage lineage (huGM-CFC). […]

[5] = as above; format: cell-based, human; conditions: human, bone marrow gm-cfc, inactivator 10uM, read-out: No. of colonies as % of control (ie no inactivator)
Text: as §1

SMILES	IC50 [1] [µM]	toxicity in combination with BCNU in nude mice [2]	sensitising Raji cells to the growth inhibitory effects of temozolomide, compared with BeG ([3]; 0.1uM inactivator, Figure 3, in words)	dose response of sensitization of Raji cells to temozolomide ([3]; inactivator 0.1 to 5.0µM, Figures 3 and 4, in words)	toxic effect of inactivator alone on bone marrow cells, compared with 0^6-benzylguanine [4]	viability at 216 h, 10 µM ([5]; Patient A) [%]	viability at 216 h, 10 µM ([5]; Patient B) [%]	viability at 216 h, 10 µM ([5]; Patient C) [%]	viability at 216 h, 10 µM ([5]; Patient D) [%]	viability at 216 h, 10 µM ([5]; Patient E) [%]
Nc1nc(OCc2ccco2)c2nc[nH]c2n1 [B.4203, O^6-furfurylguanine]	0.12	–	–	–	–	–	–	–	–	–
Nc1nc(OCc2cccs2)c2nc[nH]c2n1 [B.4205, O^6-thenylguanine]	–	substantially less toxic; also recorded: very little effect	more effective than BeG	lack of dose response	comparable to those for 0^6-benzylguanine	91	46	97	118	89
